Data set [1] relates to MCF-7 cells. The settings on record: cited from earlier work.
For data set [2], the system named is MCF-7 breast cancer cells. Description: MTT colorimetric cell viability assay, MCF-7. In kind it is cell-based. The settings on record: for inhibition at 50 µM / EC50: Homo sapiens; for inhibition at 50 µM: MCF7, 48 hours, MTT, triplicates, read-out: Percentage inhibition MCF-7; for CTRL-TST/CTRL*100 (inhibition) MCF-7: EC50 plate; for EC50: MCF7, MTT, mean of three experiments. As for the experimental part: MCF-7 cells were maintained as monolayer in 25 cm^2 culture flasks (T-25) at 37 °C in DMEM medium (GIBCO, St. Louis, USA) supplemented with high glucose, L-glutamine, pyridoxine hydrochloride, 110 mg/L sodium pyruvate, 3.7 g/L NaHCO3 and antibiotics (Penicillin-10,000 units/mL, Streptomycin −10,000 μg/mL, GIBCO, USA). Growth medium (pH 7.4) was prepared by adding 5% heat inactivated FBS (Fetal Bovine Serum, GIBCO, USA) and stored at 4 °C. The medium was changed 10–18 hrs prior to experiment, and cells were confluent at the time of experimentation. Cells were dislodged from flasks by gentle trypsinization containing 0.25% Trypsin. MCF-7 cells were regularly sub-cultured thrice a week in a seeding density of 40,000–50,000 cells/cm^2area. Cell confluency = 70%
The MTT colorimetric viability assay was performed to evaluate the anticancer effect of compounds. 30,000 cells/100 μl of media were seeded per well and allowed to stretch and adhere overnight at 37 °C. Following day media was removed and 100 μl fresh media was added to the grown cells. […] There was one positive and one negative control along with 13 compounds. The results were measured all in triplicate in 45 wells of 96 well plate at each time point. Cytotoxic effect was evaluated using ability of live cells to cleave MTT ((3-[4, 5- dimethylthiazol-2-yl]-2, 5-diphenyl tetrazolium bromide)) (Sigma-Aldrich, St Louis, MO, USA), into formazan crystals. Post 48 hours of treatment, 10 μl of MTT (5 mg/ml in PBS) was added to the cells and incubated for 4 hours in dark at 37 °C. The violet colored crystals formed were then dissolved in 100 μl DMSO solvent (Dimethyl Sulfoxide, Sigma-Aldrich, St. Louis, MO, USA). The colorimetric assay was read by a MultiMode Plate Reader (Bio-Rad) at 595 nm. Percentage of Inhibition of drug was calculated by following formula:
O.D1 O.D2 O.D3 AVG CTRL-TST CTRL-TST/CTRL*100 stdev

In a further data set the test system is COS-7 cells. Description: MTT colorimetric cell viability assay, COS-7. In kind it is cell-based. The settings on record: for inhibition at 50 µM: Chlorocebus aethiops, COS-7, MTT, triplicates, read-out: Percentage inhibition COS-7. As for the experimental part: (§1) The MTT colorimetric viability assay was performed to evaluate the anticancer effect of compounds. 30,000 cells/100 μl of media were seeded per well and allowed to stretch and adhere overnight at 37 °C. Following day media was removed and 100 μl fresh media was added to the grown cells. Adhered cells were then treated with the compounds 5a-m dissolved in DMSO in triplicates at a standard concentration of 50 μM for 48 hours. There was one positive and one negative control along with 13 compounds. The results were measured all in triplicate in 45 wells of 96 well plate at each time point. Cytotoxic effect was evaluated using ability of live cells to cleave MTT ((3-[4, 5- dimethylthiazol-2-yl]-2, 5-diphenyl tetrazolium bromide)) (Sigma-Aldrich, St Louis, MO, USA), into formazan crystals. Post 48 hours of treatment, 10 μl of MTT (5 mg/ml in PBS) was added to the cells and incubated for 4 hours in dark at 37 °C. The violet colored crystals formed were then dissolved in 100 μl DMSO solvent (Dimethyl Sulfoxide, Sigma-Aldrich, St. Louis, MO, USA). The colorimetric assay was read by a MultiMode Plate Reader (Bio-Rad) at 595 nm. Percentage of Inhibition of drug was calculated by following formula: […]

For the next data set, the system named is MCF10A cells. Description: MTT cytotoxicity assay, MCF10A. In kind it is cell-based. The settings on record: for CTRL-TST/CTRL*100 MCF10A cytotoxicity / Percentage inhibition MCF10A: 48 hours; for CTRL-TST/CTRL*100 MCF10A cytotoxicity: 595 nm; for Percentage inhibition MCF10A: MTT. As for the experimental part:
MCF10A was obtained from American Tissue Type Culture Collection (ATCC, Bethesda, MD). All cells were grown in a humidified atmosphere at 37 °C, with 5% CO2 in air.
as §1
Cytotoxicity assay with MCF 10A
Experiment :MCF10A cytotoxicity assay 48 hours
Raw Data{Wavelength:595.0}
O.D1 O.D2 O.D3 AVG CTRL-TEST CTRL-TST/CTRL*100
(1 picture or pasted object on this page, not shown here)
On the technique in general: Formazan colour is commonly taken as a measure of viable cells.

The test system of data set [3] is MCF-7 cells. Description: Annexin V/propidium iodide FACS assay. In kind it is cell-based. As for the experimental part: The assay is based on the ability of the protein annexin V to bind to phosphatidylserine (PS) exposed on the outer membrane leaflet in apoptotic cells (PS also appears on the necrotic cell surface). The annexin V assay was performed following the manufacturer’s instructions (Annexin V-FITC kit,Alexa Fluor). Briefly, the cells were washed with PBS and suspended in pre-diluted binding buffer. The cell density was adjusted to 2 million and 195 μl of cell suspension were mixed with 5 μl Annexin V-FITC and incubated for 10 min in the dark at room temperature. The cells were washed with binding buffer, re-suspended in 195 μl binding buffer, counterstained with 10 μl of the 20 μg/ml propidium iodide stock (final concentration 1 μg/ml) and the data were acquired by BD FACS diva 7.0 at 6 h, 12 h and 24 h.
(In general: Flow cytometry measures light scatter and fluorescence of single cells or particles in a stream.)

Data set [4] concerns MCF-7 cells. Description: DNA fragmentation (DNA-ladder) assay. In kind it is cell-based. The settings on record: MCF-7, gel electrophoresis. On the procedure: The DMSO (dimethyl sulphoxide)–SDS (sodium dodecyl sulphate)–TE (Tris-EDTA) method: 2 million MCF-7cells were taken as starting material for DNA isolation. Cells were dislodged with Trypsin-EDTA and washed with 1 X PBS. DMSO was added directly to the cell pellet (100 μl) and mixed well by pipetting. TE buffer (pH 7.4) with 2% SDS was added into the mixture with same volume, followed by pipetting. The solution was centrifuged at 3000 rpm at 4 °C and 30 μL of the supernatant was loaded on agarose gel to check the effect of drugs on DNA molecule.

Data set [5] concerns MCF-7 cells. Description: Cell migration (scratch) assay. In kind it is cell-based. Conditions: 24 hours, compared to untreated cells. On the procedure:
MCF-7 cells were grown to confluence in six-well tissue culture plastic dishes to a density of ∼0.2 million cells/well. After 24 hrs of seeding, cells were treated with chemical compounds. The medium was removed and the cells were scratched by 200 μL pipette micro tip through the center of the plate. The cultures were washed to remove debris and re-cultured with DMEM containing 10% FBS for cell migration. The cells were imaged at 24 hrs and the migrated distance was measured. Migration rate was calculated by counting five to seven fields per image and the results presented as the average of three independent experiments performed over multiple days.

The test system of the next data set is PKCα kinase. Further details: method as in Shantani UPT Application Notes. Conditions: at 1μM; ref Shantani UPT Application Notes; cited from earlier work.

Broadly, the inhibition is the change of the read-out against control, counted positive when it falls. Usually EC50 stands for the concentration giving half of the maximal effect. Low values mean an effect from little substance, high ones a need for much substance.

In brackets after ≈: the same amount, converted by molar mass. Several values for one entry are separate records, joined by “and”; a condition that tells them apart may be missing. Equal entries are not always repeated. Entries after “also recorded” stand apart in the source; their conditions may differ.

For the compound `CS[C@@]1(C)C(=O)N(C)[C@@](Cc2c[nH]c3ccccc23)(SC)C(=O)N1C` [Chaetocochins G], in the data set on MCF-7 cells [1], the “IC50 in MCF-7” value was 16.9 µg/mL (≈ 44.8 µM) and the “Mode of cell death” value is “Induces Apoptosis”.
On to `Cc1ccc(C2NCCC23C(=O)Nc2ccccc23)cc1` (centres unmarked) [Compound 5a], for which the inhibition at 50 µM amounted to 35.06 ± 0.09% in data set [2] and 11.73 ± 0.09% in the data set on COS-7 cells.
For the compound `O=C1Nc2ccccc2C12CCNC2c1cccc(C(F)(F)F)c1` (centres unmarked) [Compound 5b], the inhibition at 50 µM in data set [2] was 33.1 ± 0.12%; in the data set on COS-7 cells, 20.73 ± 0.11%.
Taken in the same sequence, the figures for `Cc1cc(C)cc(C2NCCC23C(=O)Nc2ccccc23)c1` (centres unmarked) [Compound 5c] were 34.46 ± 0.11% and 28.8 ± 0.13%.
The matching figures for `O=C1Nc2ccccc2C12CCNC2c1c(F)cccc1F` (centres unmarked) [Compound 5d]: 44.25 ± 0.17% and 9.22 ± 0.12%.
`O=C1Nc2ccccc2C12CCNC2c1cccc(F)c1` (centres unmarked) [Compound 5e]: the “Effect on proliferation of healthy MCF10A cells” value with MCF10A cells was “did not inhibit the proliferation; also recorded: little or no effect”. For the same compound, the “CTRL-TST/CTRL*100 MCF10A cytotoxicity” value in the data set with MCF10A cells worked out at 4.48. For the same compound, the “Percentage inhibition MCF10A” value with MCF10A cells is reported as 4.48%. The “CTRL-TST/CTRL*100 (inhibition) MCF-7” value in data set [2] (concentration row 10) is listed as -4.013; in data set [2] (concentration row 20) it was 8.388; in data set [2] (concentration row 30), 23.78; in data set [2] (concentration row 40), 31.55; in data set [2] (concentration row 50), 52.5. The midpoint of the response in data set [2], the EC50, lay at 6 µM. Moreover, the inhibition at 50 µM in data set [2] stood at 54.67 ± 0.08%; in the data set on COS-7 cells, 3.56 ± 0.19%. Moreover, the “Inhibition of proliferation of healthy COS-7 cells” value in the data set on COS-7 cells is “did not inhibit the proliferation”.
Turning to `COc1cccc(C2NCCC23C(=O)Nc2ccccc23)c1` (centres unmarked) [Compound 5f], the inhibition at 50 µM amounted to 38.48 ± 0.18% in data set [2] and 34.87 ± 0.17% in the data set on COS-7 cells.
Taken in the same sequence, the figures for `COc1ccc(C2NCCC23C(=O)Nc2ccccc23)cc1OC` (centres unmarked) [Compound 5g] were 25.29 ± 0.24% and 2.39 ± 0.23%.
In the case of `COc1ccc(C2NCCC23C(=O)Nc2ccccc23)cc1` (centres unmarked) [Compound 5h], the values for the inhibition at 50 µM (in data set [2]; in the data set with COS-7 cells) were 50.62 ± 0.24% and 25.2 ± 0.06%, respectively.
Regarding `COc1cc(OC)c(C2NCCC23C(=O)Nc2ccccc23)cc1OC` (centres unmarked) [Compound 5i], in the data set with MCF-7 cells [3], the “Mode of cell death by Annexin-PI FACS” value was “necrosis was also confirmed”. In the data set on MCF-7 cells [4], the “DNA fragmentation pattern / mode of cell death” value is on record as “smearing of DNA fragments”. Also, the “Effect on proliferation of healthy MCF10A cells” value in the data set with MCF10A cells is on record as “did not inhibit the proliferation; also recorded: little or no effect”. Further, the “CTRL-TST/CTRL*100 MCF10A cytotoxicity” value with MCF10A cells stood at 0.8. The “Percentage inhibition MCF10A” value in the data set with MCF10A cells stood at 0.8%. The “Inhibition of cell migration of MCF-7 cells” value in the data set on MCF-7 cells [5] is reported as “inhibit cell migration”. The “CTRL-TST/CTRL*100 (inhibition) MCF-7” value came to 7.139 in data set [2] (concentration row 10); 20.22 in data set [2] (concentration row 20); 43.4 in data set [2] (concentration row 30); 50.54 in data set [2] (concentration row 40); 66.16 in data set [2] (concentration row 50). A half-maximal response in data set [2] (EC50) required 4.01 µM. Further, the inhibition at 50 µM in data set [2] turned out to be 53.66 ± 0.06%; in the data set on COS-7 cells it was 15.6 ± 0.09%. In addition, the “Inhibition of proliferation of healthy COS-7 cells” value in the data set with COS-7 cells is “did not inhibit the proliferation”.
`COc1ccc(C2NCCC23C(=O)Nc2ccccc23)c(F)c1` (centres unmarked) [Compound 5j]: the inhibition at 50 µM in data set [2] is 38.72 ± 0.15%; with COS-7 cells, 7.52 ± 0.15%.
Taken in the same sequence, the figures for `COc1ccc(C2NCCC23C(=O)Nc2ccccc23)cc1C` (centres unmarked) [Compound 5k] were 44.4 ± 0.09% and 7.14 ± 0.19%.
The matching figures for `O=C1Nc2ccccc2C12CCNC2c1cc(C(F)(F)F)ccc1C(F)(F)F` (centres unmarked) [Compound 5m]: 31.81 ± 0.11% and -0.51 ± 0.29%.
As to `COc1cc([C@@H]2c3cc4c(cc3[C@@H](O[C@@H]3O[C@@H]5CO[C@@H](C)O[C@H]5[C@H](O)[C@H]3O)[C@H]3COC(=O)[C@H]23)OCO4)cc(OC)c1O` [Etoposide, reference compound], the inhibition at 50 µM in data set [2] is 71.95 ± 0.11%; in the data set with COS-7 cells, 77.65 ± 0.1%. The “CTRL-TST/CTRL*100 (inhibition) MCF-7, positive control” value in data set [2] (eto control row of the EC50 plates of 5l, 5e, 5i, concentration not given, listed as eto) was 70.96 and 73.49 and 73.1582.
Bisindolylmaleimide-III [Bis-III]: in the data set with PKCα kinase, the “Inhibition of PKCα kinase activity” value is listed as 93%.

These data come from publication PMC5004205, “Spiro[pyrrolidine-3, 3´-oxindole] as potent anti-breast cancer compounds: Their design, synthesis, biological evaluation and cellular target identification” (Scientific Reports, 2016).
